Like-named read-outs stand apart in the source and are kept apart here.
Legend:
CNS SF-539 = assay: COMPARE screening (NCI human cancer cell line screen), cytotoxicity GI50; format: cell-based; settings: Homo sapiens, CNSSF-539, 48 h, read-out: Cytotoxicity (GI50) CNS SF-539
In short: (§1)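 Compounds went into the NCI developmental therapeutics 60-cell-line screen at 100, 10, 1, 0.1 and 0.01 μM. After 48 h incubation, sulforhodamine B staining gave optical densities used to derive percentage growth.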

colon HCT-116 = assay: as above; format: cell-based; settings: Homo sapiens, HCT-116, 48 h, read-out: Cytotoxicity (GI50) Colon HCT-116
In short: as §1

lung HOP-62 = assay: as above; format: cell-based; settings: Homo sapiens, HOP-62, 48 h, read-out: Cytotoxicity (GI50) lung HOP-62
In short: as §1

melanoma UACC-62 = assay: as above; format: cell-based; settings: Homo sapiens, UACC-62, 48 h, read-out: Cytotoxicity (GI50) melanoma UACC-62
In short: as §1

ovarian OVCAR-3 = assay: as above; format: cell-based; settings: Homo sapiens, OVCAR-3, 48 h, read-out: Cytotoxicity (GI50) Ovarian OVCAR-3
In short: as §1

prostate DU-145 = assay: as above; format: cell-based; settings: Homo sapiens, DU-145, 48 h, read-out: Cytotoxicity (GI50) prostate DU-145
In short: as §1

renal SN12C = assay: as above; format: cell-based; settings: Homo sapiens, SN12C, 48 h, read-out: Cytotoxicity (GI50) renal SN12C
In short: as §1

[1] = system: all human cancer cell lines successfully tested; assay: NCI screen mean graph midpoint (MGM) for growth inhibition; format: cell-based; settings: Table 6; for GI50's against various cell lines (in words): NCI60 cell lines; for MGM (mean GI50 across cell lines): all human cancer cell lines successfully tested, range 10^−8 to 10^−4 molar, with standard error
In short: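 NCI60 panel cells exposed to compound at 100, 10, 1, 0.1 and 0.01 μM for 48 h, then sulforhodamine B staining. Percentage growth versus control plotted against log concentration; MGM is the midpoint across all lines tested.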

recombinant TDP1 = recombinant TDP1 (Homo sapiens, UniProt Q9NUW8); assay: Gel-based assay measuring the inhibition of recombinant TDP1; format: biochemical; settings: for IC50: Table 5, determined in duplicate
Description: A 5′-[^32P]-labeled single-stranded DNA oligonucleotide containing a 3′-phosphotyrosine (N14Y) was generated as described by Dexheimer et al. (J. Med. Chem. 2009, 52, 7122-7131). The DNA substrate was then incubated with 5 μM recombinant TDP1 in the absence or presence of inhibitor for 15 min at room temperature in a buffer containing 50 mM Tris HCl, pH 7.5, 80 mM KCl, 2 mM EDTA, 1 mM DTT, 40 μg/ml BSA and 0.01% Tween-20. Reactions were terminated by the addition of 1 volume of gel loading buffer [99.5% (v/v) formamide, 5 mM EDTA, 0.01% (w/v) xylene cyanol, and 0.01% (w/v) bromophenol blue]. Samples were subjected to a 16% denaturing PAGE and gels were exposed after drying to a PhosphorImager screen (GE Healthcare). Gel images were scanned using a Typhoon 8600 (GE Healthcare) and densitometric analyses were performed using the ImageQuant software (GE Healthcare).
The TDP1 inhibitory activities of the O-2-substituted indenoisoquinolines were measured by determining their abilities to inhibit the hydrolysis of the phosphodiester linkage between tyrosine and the 3′-end of a DNA oligonucleotide substrate and thus prevent the generation of an oligonucleotide with a free 3′-phosphate (N14P, Scheme 13). Therefore, the disappearance of the gel band for N14P indicates TDP1 inhibition.
Tyrosyl-DNA phosphodiesterase 1 (TDP1) is a DNA repair enzyme that repairs cytotoxic DNA damage induced by Top1 inhibitors.

breast MCF-7 = assay: NCI60 antiproliferative activity, cytotoxicity GI50; format: cell-based, human; settings: Homo sapiens, MCF7, 48 h, read-out: Cytotoxicity (GI50) breast MCF-7
Description: Selected compounds were tested for antiproliferative activity in the National Cancer Institute's developmental therapeutics assay 60 cell line screen (NCI60). The cells were incubated with the tested compounds at 100, 10, 1, 0.1, and 0.01 μM concentrations for 48 h before treatment with sulforhodamine B dye. Optical densities were recorded, and their ratios relative to that of the control were plotted as percentage growth against the log 10 of the tested compound concentrations.

Human recombinant Top1 = target: T1, Human recombinant Top1 (Homo sapiens, UniProt P11387); assay: Topoisomerase 1-mediated DNA cleavage reactions (B), 117-bp DNA oligonucleotide; format: biochemical; design: key to Top1 inhibitory activity (level): 0, no detectable activity; +, weak activity; ++, similar activity to compound 33; +++, greater activity than 33; ++++, equipotent to 32; Ambiguous scores (e.g., between two values) are designated with parentheses (e.g., ++(+) would be between ++ and +++); key to Top1 (compound-induced DNA cleavage due to Top1 inhibition): 0, no detectable activity; +, weak activity; ++, similar activity to compound 5; +++, greater activity than 34; ++++ , equipotent to 32; The (+) ranking indicates the activity lies between two given values; settings: Table 5; for Top1 inhibitory activity (level): relative to compounds 32 and 33; for Top1 (compound-induced DNA cleavage due to Top1 inhibition): semiquantitative scale relative to 1 μM camptothecin (32) or MJ-III-65 (34)
T1 construct: made in house
T1 sequence (P11387 1-765): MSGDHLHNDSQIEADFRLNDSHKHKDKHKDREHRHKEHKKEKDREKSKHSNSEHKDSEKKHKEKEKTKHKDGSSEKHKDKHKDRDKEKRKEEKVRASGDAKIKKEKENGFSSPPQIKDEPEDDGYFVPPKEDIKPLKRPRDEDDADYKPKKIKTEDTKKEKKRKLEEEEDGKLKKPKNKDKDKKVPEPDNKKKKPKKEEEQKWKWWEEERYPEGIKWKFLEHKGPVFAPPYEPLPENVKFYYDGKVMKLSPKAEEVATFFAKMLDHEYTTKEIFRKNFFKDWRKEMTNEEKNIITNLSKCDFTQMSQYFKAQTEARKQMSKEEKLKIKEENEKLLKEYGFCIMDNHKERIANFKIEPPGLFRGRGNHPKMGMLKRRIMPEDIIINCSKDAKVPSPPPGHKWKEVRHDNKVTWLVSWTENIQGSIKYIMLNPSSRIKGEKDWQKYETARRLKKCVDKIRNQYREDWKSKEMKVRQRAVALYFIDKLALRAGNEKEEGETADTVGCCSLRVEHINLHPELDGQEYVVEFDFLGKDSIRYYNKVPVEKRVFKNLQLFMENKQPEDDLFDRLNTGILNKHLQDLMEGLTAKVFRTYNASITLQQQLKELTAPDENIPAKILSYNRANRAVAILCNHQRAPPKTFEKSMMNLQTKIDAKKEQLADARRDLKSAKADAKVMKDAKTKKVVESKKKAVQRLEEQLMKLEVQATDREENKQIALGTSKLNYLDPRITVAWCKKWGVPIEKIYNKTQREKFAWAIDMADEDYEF
Description: Human recombinant Top1 was purified from baculovirus as described in Bailly, C. Curr. Med. Chem. 2000, 7, 39-58. DNA cleavage reactions were prepared as previously reported with the exception of the DNA substrate in Saltz, et al. Oncologist 1997, 2, 402-409.
Approximately 2 nM radiolabeled DNA substrate was incubated with recombinant Top1 in 20 μL of reaction buffer [10 mM Tris-HCl (pH 7.5), 50 mM KCl, 5 mM MgCl2, 0.1 mM EDTA, and 15 μg/mL BSA] at 25° C. for 20 min in the presence of various concentrations of compounds. […] Aliquots of each reaction mixture were subjected to 20% denaturing PAGE. Gels were dried and visualized using a phosphoimager and ImageQuant software (Molecular Dynamics).
All of the new indenoisoquinoline derivatives with C-2 side chains were tested in Top1-mediated DNA cleavage assays. For this purpose, a ^32P 3′-end labeled 117-bp DNA fragment was incubated with Top1 and four 10-fold dilutions starting from 100 μM of a tested compound. The DNA fragments were separated on 20% PAGE denaturing gels. The Top1 inhibitory activities were assigned on the basis of the visual inspection of the number and intensities of the gel bands corresponding to Top1-mediated DNA cleavage fragments. […] Ambiguous scores (e.g., between two values) are designated with parentheses (e.g., ++(+) would be between ++ and +++).

[2] = read-out: TDP1 (IC50, semiquantitative scale)
[3] = read-out: TDP1 inhibitory activity (potency score)

Sequence of recombinant TDP1 (Q9NUW8 whole entry): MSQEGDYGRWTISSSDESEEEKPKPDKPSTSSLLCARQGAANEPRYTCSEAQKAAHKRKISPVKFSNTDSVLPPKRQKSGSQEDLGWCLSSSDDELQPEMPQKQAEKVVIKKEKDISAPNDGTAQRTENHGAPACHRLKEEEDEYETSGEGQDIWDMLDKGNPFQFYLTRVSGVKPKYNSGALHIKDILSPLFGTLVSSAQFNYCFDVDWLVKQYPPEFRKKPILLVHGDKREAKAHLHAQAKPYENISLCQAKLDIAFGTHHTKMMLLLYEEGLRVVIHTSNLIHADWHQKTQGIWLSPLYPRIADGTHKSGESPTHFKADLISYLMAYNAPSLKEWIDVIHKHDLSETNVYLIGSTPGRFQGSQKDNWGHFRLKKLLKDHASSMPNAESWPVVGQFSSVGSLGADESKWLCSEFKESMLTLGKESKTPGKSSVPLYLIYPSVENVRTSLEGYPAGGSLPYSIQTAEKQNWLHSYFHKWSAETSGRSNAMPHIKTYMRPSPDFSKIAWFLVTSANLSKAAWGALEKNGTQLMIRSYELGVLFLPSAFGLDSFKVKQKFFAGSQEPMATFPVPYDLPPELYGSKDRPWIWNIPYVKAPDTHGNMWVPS

| SMILES | GI50 (CNS SF-539) [nM] | GI50 (colon HCT-116) [nM] | GI50 (lung HOP-62) [nM] | GI50 (melanoma UACC-62) [nM] | GI50 (ovarian OVCAR-3) [nM] | GI50 (prostate DU-145) [nM] | GI50 (renal SN12C) [nM] | GI50's against various cell lines (in words) [1] | MGM (mean GI50 across cell lines) [1] [nM] | IC50 (recombinant TDP1; [2]) [nM] | GI50 (breast MCF-7) [nM] | melting point [°C] | Top1 inhibitory activity (level) (Human recombinant Top1) | Top1 (compound-induced DNA cleavage due to Top1 inhibition) (Human recombinant Top1) | TDP1 inhibitory activity (in words) (recombinant TDP1) | IC50 (recombinant TDP1; [3]) [nM] |
| --- | --- | --- | --- | --- | --- | --- | --- | --- | --- | --- | --- | --- | --- | --- | --- | --- |
| COc1cc2c(=O)n(CCCN3CCOCC3)c3c(c2cc1OCCCN)C(=O)c1cc2c(cc1-3)OCO2 [Compound 22, 2-(3-Aminopropoxy)-3-methoxy-6-(3-morpholinopropyl)-5H-[1,3]dioxolo [4′,5′:5,6]indeno[1,2-c]isoquinoline-5,12(6H)-dione] | 200 | 200 | 300 | 300 | 400 | 300 | 300 | submicromolar | 500 ± 92 | 37000 to 111000 | 200 | > 350 |  |  |  |  |
| COc1cc2c(=O)n(CCCN3CCOCC3)c3c(c2cc1OCCCN1CCOCC1)C(=O)c1cc2c(cc1-3)OCO2 [Compound 25, 3-Methoxy-2-(3-morpholinopropoxy)-6-(3-morpholinopropyl)-5H-[1,3]dioxolo [4′,5′:5,6]indeno[1,2-c]isoquinoline-5,12(6H)-dione] | 100 | 100 | 30 | 200 | 700 | 20 | 100 | submicromolar | 200 ± 28 | > 111000 | 20 |  | +++ | +++ | no TDP1 inhibitory activity was observed |  |
| COc1cc2c(=O)n(CCCN3CCOCC3)c3c(c2cc1OCCCN1CCCCC1)C(=O)c1cc2c(cc1-3)OCO2 [Compound 27, 3-Methoxy-6-(3-morpholinopropyl)-2-(3-(piperidin-1-yl)propoxy)-5H-[1,3]dioxolo [4′,5′:5,6]indeno[1,2-c]isoquinoline-5,12(6H)-dione] | 30 | 1100 | 300 | 9600 | 5400 | 200 | 400 | low micromolar | 1600 ± 230 | 12000 to 37000 | 40 |  | +++ | +++ |  | 12000 to 37000 |
| COc1cc2c(=O)n(CCCN3CCOCC3)c3c(c2cc1OCCCN1CCCC1)C(=O)c1cc2c(cc1-3)OCO2 [Compound 28, 3-Methoxy-6-(3-morpholinopropyl)-2-(3-(pyrrolidin-1-yl)propoxy)-5H-[1,3]dioxolo[4′,5′:5,6]indeno[1,2-c]isoquinoline-5,12(6H)-dione] | 200 | 200 | 200 | 300 | 1200 | 40 | 200 |  | 600 ± 370 | 1000 to 37000 | 100 |  | ++ | ++ |  | 1000 to 37000 |
| COC(=O)COc1cc2c3c(n(CCCN4CCOCC4)c(=O)c2cc1OC)-c1cc2c(cc1C3=O)OCO2 [Compound 29, Methyl 2-((3-Methoxy-6-(3-morpholinopropyl)-5,12-dioxo-6,12-dihydro-5H-[1,3]dioxolo[4′,5′:5,6]indeno[1,2-c]isoquinolin-2-yl)oxy)acetate] | 100 | 1100 | 100 | 1000 | 5800 | 900 | 800 | low micromolar | 3100 ± 1200 | > 111000 | 400 |  | + or ++ | ++ |  |  |
